# In EP0293826A2, “Therapeutic and prophylactic application of sulfated polysaccharides against AIDS” (priority 1987, dated 1988):
# Tested on: HIV-1
# Experiment: Inhibition of HIV-1 replication in MT-4 cells (trypan blue exclusion, day 5)
# Format: cell-based
# Conditions: not given
# Protocol: MT-4 cells were suspended at 5 x 10^s cells per ml and infected with HIV-1 at 1000 CCIDso per ml (1 CCIDso being the 50% cell culture infective dose). After 2 h-incubation at 37° C, 5 x 10^4 cells per 100 µl were brought into each well of a flat-bottomed 96-well plastic microtiter tray containing 100 µl of various dilutions of the test compounds. After 5 days incubation at 37° C, the number of viable cells was determined microscopically in an hemacytometer by trypan blue exclusion. Anti-HIV-1 activity of the compounds was also determined by monitoring viral antigen expression in HUT-78 cells at day 14 after infection, measured by indirect immunifluorescence, using a polyclonal antibody as probe.
row,Molecule,concentration at which no anti-HIV-1 activity was shown [µg/mL]
1,"N[C@H]1C(O)O[C@H](COS(=O)(=O)O)[C@@H](O)[C@@H]1O (stereo partly shown) [glucosamine 6-sulfate, glucosamine-6-sulfate]",> 125
2,"glucosamine-2,3-disulfate [glucosamine 2,3-disulfate]",> 125
3,glucosamine-2-sulfate [glucosamine 2-sulfate],> 125
4,"N[C@H]1C(O)O[C@H](CO)[C@@H](O)[C@@H]1OS(=O)(=O)O (stereo partly shown) [glucosamine 3-sulfate, glucosamine-3-sulfate]",> 125

# Tested on: human immuno deficiency virus (HIV)
# Experiment: not given
# Conditions: cited from earlier work
row,Molecule,concentration completely protecting ATH8 cells against the cytopathogenicity of HIV
1,Cc1ccc(C(=O)Nc2ccc(S(=O)(=O)O)c3cc(S(=O)(=O)O)cc(S(=O)(=O)O)c23)cc1NC(=O)c1cccc(NC(=O)Nc2cccc(C(=O)Nc3cc(C(=O)Nc4ccc(S(=O)(=O)O)c5cc(S(=O)(=O)O)cc(S(=O)(=O)O)c45)ccc3C)c2)c1 [suramin],50 µg/mL
2,Cc1cc(-c2ccc(/N=N/c3ccc4c(S(=O)(=O)O)cc(S(=O)(=O)O)c(N)c4c3O)c(C)c2)ccc1/N=N/c1ccc2c(S(=O)(=O)O)cc(S(=O)(=O)O)c(N)c2c1O [Evans Blue],25 µg/mL
3,"Cc1cn([C@H]2C[C@H](N=[N+]=[N-])[C@@H](CO)O2)c(=O)[nH]c1=O [AZT, 3 -azido-2',3 -dideoxythymidine]",1-5 µ.M
